# Key:
# [1] = tested on: IL-1 alpha release from human keratinocytes; experiment: Cathelicidin peptide (LL-37)-induced IL-1 alpha release from human keratinocytes, ELISA; assay type: cell-based; details: 1.25 μg/ml berberine; LL-37 6.4 μM, 16 h; vs cathelicidin peptide with 1% ethanol control; P<0.05
# Method: (§1) For our in vitro study, berberine (Sigma, St. Louis, Mo., USA) was dissolved in water, methanol, ethanol or dimethyl sulfoxide (DMSO). Normal human keratinocytes (Invitrogen, CA, USA) were grown in EpiLife medium (Invitrogen, CA, USA) supplemented with 0.06 mM Ca^+2, 1% EpiLife defined growth supplement, and 1% penicillin/streptomycin (Invitrogen, CA, USA). Cells were grown at 37° C. in a humidified atmosphere of 5% CO2 and 95% air. The human keratinocytes were cultured to confluence and treated with synthetic cathelicidin peptides (LL-37) (6.4 μM) for 16 h to induce inflammatory response similar to that observed in rosacea. Some of the cathelicidin-treated keratinocyte cultures were co-incubated with berberine of concentrations from 1.25 μg/ml to 12.5 μg/ml. The keratinocytes cultures treated with cathrlicidin or cathrlicidin with 1% ethanol and without berberine were used as negative controls. Supernatants were collected and placed in a sterile 96-well plate for ELISA of interleukin-8 (IL-8), interleukin-1 alpha (IL-1 alpha), and […] (VEGF) in accordance with the manufacturer's instructions (R&D Systems, MN, USA). […]
# (§2) FIG. 1. […] Keratinocytes were stimulated by cathelicidin peptide (LL-37), and the release of IL-8 (FIG. 1A), IL-1 alpha (FIG. 1B) and VEGF (FIG. 1C) by the keratinocytes was evaluated by ELISA assay.
# [2] = tested on: VEGF release from human keratinocytes; experiment: Cathelicidin peptide (LL-37)-induced VEGF release from human keratinocytes, ELISA; assay type: cell-based; details: 1.25 μg/ml berberine; LL-37 6.4 μM, 16 h; vs cathelicidin peptide with 1% ethanol control; P<0.05
# Method: as §1, §2
# [3] = tested on: cathelicidin-induced lesions; experiment: Mouse model of rosacea (subcutaneous cathelicidin peptide), topical treatment; assay type: in vivo, BALB/c and C57BL/6 mice; details: topical formulation containing 0.1% berberine twice a day for 2 days; 4th day; vs controls (n=3 each)
# Method: The animal model of rosacea: the animal model of rosacea was adopted from previous reported^18. Briefly, BALB/c and C57BL/6 mice, shaved 24 h before treatments, were injected subcutaneously on the back with 40 μl of cathelicdin peptide (320 μM) twice a day. Forty-eight hours after the initial injection (four injections in total), erythema and edema were observed on the injected site mimicking the clinical features of rosacea.
# In our experiments, cathelicidin-injected mice were treated with or without topical berberine twice a day to observe the effect of berberine on reducing inflammation. […] The cathelicidin-injected mice were then divided into 2 groups, which were treated with berberine (n=3) or not treated with berberine (n=3; as controls), respectively, for a subsequent 2 days. The topical formulation containing 0.1% berberine was applied on the cathelicidin-induced lesions twice a day. The erythematous or inflammatory lesions lasted for more than 7 days in the control group.
# [4] = tested on: IL-8 release from human keratinocytes; experiment: Cathelicidin peptide (LL-37)-induced IL-8 release from human keratinocytes, ELISA; assay type: cell-based
# Method: as §1, §2
# [5] = tested on: patients with rosacea; experiment: Open-label human clinical study on patients with rosacea; assay type: in vivo; details: for overall erythema severity (score 0 to 3): baseline 2.35±0.6; for overall erythema severity (score 0 to 3) / IGA score (7-point, 0 clear to 6 severe): P<0.0001 vs W0; for IGA score (7-point, 0 clear to 6 severe): baseline 4.1±1.3
# Method: Method: an open-label clinical study was carried out to determine the efficacy of the topical berberine formulations of this invention for the treatment of rosacea and related skin disorders. Patients included in this study were diagnosed by dermatologists to have clinically defined rosacea. All patients were given 0.1% berberine gel twice a day for 6 weeks. At the time points of treatment initiation, and 2-weeks and 6-weeks after treatment, the patients were evaluated for their rosasea symptoms. The patients were not allowed to use other medications, including antibiotics, for their skin conditions. Only oral antihistamines were allowed for relief of pruritus symptoms. To evaluate the efficacy of treatment, the standard grading system for rosacea developed by the National Rosacea Society Expert Committee on the Classification and Staging of Rosacea was used^3. Additionally, the investigator's global assessment (IGA) and overall erythema severity of the patients were scored at week 0, week 2, and week 6 of berberine therapy. The IGA was expressed according to a 7-point scoring system with a range of 0 (clear) to 6 (severe). The severity of overall facial erythema and telangiectasia, respectively, was graded as ‘none’, ‘mild’, ‘moderate’, or ‘severe’ with scores from 0 to 3. The grading system used to assess overall facial erythema severity was described previously^38. Results: a total of 20 patients with rosacea (18 females and 2 males) were enrolled in this study. The mean age of the study population was 43.3 (19-85) years. The mean duration of rosacea prior to berberine treatment was 4 (1-24) years. Among the 20 patients with rosacea, 13 cases were of erythematotelangiectatic type (65%), 7 cases papulopustular type (35%), and […].
# [6] = 0.1% berberine gel twice a day, end of treatment (6 weeks), 19 of the 20 patients
smiles,measurement,setting,value
"COc1ccc2cc3[n+](cc2c1OC)CCc1cc2c(cc1-3)OCO2 [berberine, 5,6-dihydro-9,10-dimethoxybenzo(g)-1,3-benzodioxolo (5,6-a) quinolizinium]",decrease of the release of IL-1 alpha,[1],24.9%
same,decrease of the release of VEGF,[2],29.1%
same,erythema and vascular dilatation,[3],significant reduced
same,"inhibition of cathelicidin induced inflammatory response (IL-8, IL-1 alpha, VEGF release)","[4]; 0-12.5 μg/ml, especially when concentration larger than 6.25 μg/ml",significant inhibit cathelicidin induced inflammatory response in a dose-dependent manner
same,decrease of the release of IL-8,"[4]; 1.25 μg/ml berberine, LL-37 6.4 μM, 16 h, vs cathelicidin peptide with 1% ethanol control, P<0.05",31.4%
same,cases with transient itchy/stinging sensation in the area of topical medication,"[5]; 0.1% berberine gel twice a day for 6 weeks, 2 cases of 20, tolerable without discontinuation",10%
same,serious adverse events,"[5]; 0.1% berberine gel twice a day for 6 weeks, 20 patients",no serious adverse event
same,patients with a mild (1) to none (0) erythema rating,[5]; [6],95%
same,patients with a mild (2) to clear (0) IGA rating,[5]; [6],95%
same,overall erythema severity (score 0 to 3),"[5]; 0.1% berberine gel twice a day, week 2",1.5±0.5
same,"IGA score (7-point, 0 clear to 6 severe)","[5]; 0.1% berberine gel twice a day, week 2, 20 patients",2.6±0.9
same,overall erythema severity (score 0 to 3),"[5]; 0.1% berberine gel twice a day, week 6",0.95±0.4
same,"IGA score (7-point, 0 clear to 6 severe)","[5]; 0.1% berberine gel twice a day, week 6, 20 patients",1.6±0.8

# Reference: patent US9486402B2, “Compositions containing berberine or analogs thereof for treating rosacea or red face related skin disorders” (Derman Biomedicine Co. Ltd, priority 2009, dated 2016)
